Test results: patent US11345885B2, “Agent for inducing callus and method for inducing callus” (RIKEN, priority 2014, dated 2022)

How the values were obtained:
[1] = system: hypocotyl of Arabidopsis (Columbia); experiment: Functional analysis of putative fipexide metabolites, morphological observation of cut hypocotyl on 1/2 MS medium; type: cell-based; conditions: for callus induction activity: 0, 5, 15, 30, 45 or 60 μM in 1/2 MS medium, hypocotyl
From the text: Fipexide is a compound formed by an amide bond between 4-chlorophenoxyacetic acid and 1-piperonylpiperazine, and fipexide is deduced to be non-enzymatically hydrolyzed in a plant. Thus, treatment with 4-chlorophenoxyacetic acid or 1-piperonylpiperazine alone or treatment with both thereof was attempted.
Arabidopsis (Columbia) was allowed to germinate under weak lighting conditions for 7 days, the hypocotyl cut therefrom was placed on a ½ MS medium supplemented with 4-chlorophenoxyacetic acid and/or 1-piperonylpiperazine at 0, 5, 15, 30, 45, or 60 μM, and morphological observation thereof was conducted.

[2] = system: African violet leaf explants; conditions: cited from earlier work
[3] = system: Arabidopsis (Columbia) wild-type seeds; experiment: Morphological observation of Arabidopsis (Columbia) by treatment with fipexide (seeds sowed in 1/2 MS medium); type: in vivo; conditions: for callus formation (site): 1/2 MS medium, seeds
Protocol: Wild-type seeds of Arabidopsis (Columbia) were sowed in a ½ MS medium supplemented with fipexide at 0, 15, 30, or 45 μM, and morphological observation was conducted.

[4] = system: root organ of Arabidopsis (Columbia); experiment: Callus induction and redifferentiation by treatment with fipexide (cut root organ); type: cell-based; conditions: fipexide 45 μM for 2 weeks
Protocol: The root organ of Arabidopsis (Columbia) was cut, treated in a ½ MS medium supplemented with fipexide at 45 μM for 2 weeks to induce a callus, and then cultured in a redifferentiation medium (auxin/cytokinine). […] In contrast, the root organ of Arabidopsis (Columbia) was cut and then cultured in the redifferentiation medium without callus induction. As a result, redifferentiation was not observed (FIG. 2B).

Arabidopsis hypocotyl = experiment: Comparison of fipexide with conventional technique (2,4-D/kinetin) for callus induction; type: cell-based; conditions: fipexide 45 μM vs 2,4-dichlorophenoxyacetic acid 2.26 μM and kinetin 0.465 μM, constant lighting, 87 days
Protocol: Callus induction in Arabidopsis that was carried out at the optimized auxin/cytokinine concentration (i.e., 2,4-dichlorophenoxyacetic acid at 2.26 μM and kinetin at 0.465 μM) was compared with callus induction that was carried out at the fipexide concentration of 45 μM.

[5] = system: wild-type rice (Nipponbare); experiment: Fipexide activity test using other plants: rice seeds in fipexide medium; type: in vivo
Protocol: (§1) As with the case of Arabidopsis germination conditions, plants were cultured in a fipexide medium with the use of sterilized seeds.

[6] = system: germinated Eucalyptus seeds; experiment: Fipexide activity test using other plants: Eucalyptus seeds in fipexide medium; type: in vivo
Protocol: as §1

soybean seed (Tsurunoko) = experiment: Fipexide activity test using other plants: soybean seed in fipexide medium; type: in vivo
Protocol: as §1

tomato seed (Micro-Tom) = experiment: Fipexide activity test using other plants: tomato seed in fipexide medium; type: in vivo
Protocol: as §1

[7] = system: cucumber seed (Natsu Suzumi); experiment: Fipexide activity test using other plants: cucumber seed in fipexide medium; type: in vivo
Protocol: as §1

[8] = system: stalks and roots of wild-type Populus; experiment: Fipexide callus induction and redifferentiation in stalks and roots of Populus; type: cell-based
Protocol: The induced callus was cultured in a redifferentiation medium (i.e., a MS medium (0.9% agarose and 1.5% sucrose) containing auxin (indoleacetic acid) at 0.15 mg/1 and cytokinine (N^6-2-isopentenyladenine) at 0.5 mg/l or a ½ MS medium (0.9% Phytoagar (agarose for plants) and 0.2% sucrose) containing 3-indolebutyric acid (IBA) at 0.1 mg/l and 6-benzylaminopurine (BAP) at 0.2 mg/l).
The conditions of the aseptic stalk (which is not the hypocotyl) and the root organ sections of wild-type Populus 30 days after cutting in the presence of fipexide are shown at the center of FIG. 7, and the conditions thereof 30 days after the medium was exchanged with a fresh redifferentiation medium are shown on the right of FIG. 7.

[9] = system: Populus stalk samples (Populus tremula x tremuloides T89); experiment: Transformation by the Agrobacterium method utilizing callus induction caused by fipexide; type: cell-based
Protocol: Under general callus induction conditions for Populus, callus induction was conducted with the use of fipexide instead of auxin/cytokinine, and whether or not Agrobacterium-infected callus was transformed was examined. The GUS gene was introduced into a pH35GS binary vector comprising a Gateway cassette (Kubo M. et al., Genes & Dev., 19, 1855-1860, 2005) (manufactured by […] Innovations Inc.; Production code: IN3-VEC17) using the Gateway system, and the resulting binary vector was used for the Agrobacterium method, so as to confirm infection. 1. From young plants of aseptically cultured Populus (Populus tremula x tremuloides […]) that had been grown in pots, stalk samples (length: 5 mm) were cut. 2. The stalk samples were cultured in the presence of Agrobacterium (for 3 days, in the dark, at 22° C.). 3. After Agrobacterium was washed away, the stalk samples were placed on MS1 medium or modified MS1 medium (containing 30 μM fipexide instead of 3-indolebutyric acid (IBA) and 6-benzylaminopurine (BAP)) and cultured at 25° C. 4. […] Two months after the initiation of callus induction culture, 23 calluses were fixed in 90% (w/w) acetone at -30° C. overnight, the samples were washed twice with 50 mM PBS buffer (pH 7.0), and the samples were subjected to incubation in GUS substrate solution at 37° C. for 15 minutes for staining.

Structure (SMILES) | callus induction activity [1] | leaf area ([1]; treatment alone) | number and length of lateral roots ([1]; treatment alone) | callus formation efficiency [2] | number of days required from implanting of explants to callus formation, and formation of adventitious shoots and adventitious roots ([2]; treatment at a particular concentration) | callus formation (site) ([3]; fipexide 15 μM (low concentration)) | callus formation (site) ([3]; fipexide 45 μM (high concentration)) | callus formation in the root ([3]; fipexide at high concentration) | redifferentiation in redifferentiation medium (auxin/cytokinine) after callus induction [4] | callus induction efficiency compared with optimized auxin/cytokinine (Arabidopsis hypocotyl) | callus formation ([5]; fipexide 45 μM, 30 days after seed germination) | callus induction ([5]; germinated rice seeds, fipexide medium) | callus induction [6] | callus induction (soybean seed (Tsurunoko)) | callus induction (tomato seed (Micro-Tom)) | callus induction [7] | redifferentiation of the induced callus in redifferentiation medium ([8]; MS medium with indoleacetic acid 0.15 mg/l and N6-2-isopentenyladenine 0.5 mg/l, or 1/2 MS medium with IBA 0.1 mg/l and BAP 0.2 mg/l) | callus induction ([8]; stalks and roots of Populus in fipexide medium) | GUS activity in calluses (transformation) ([9]; 23 calluses, two months after initiation of callus induction culture, 30 μM fipexide) | callus formation on the fourth week ([9]; Agrobacterium-treated stalk samples, 25° C., modified MS1 medium with 30 μM fipexide vs conventional MS1 medium)
c1cc2c(cc1CN1CCNCC1)OCO2 [1-piperonylpiperazine, 1-(3,4-methylenedioxybenzyl)piperazine] | callus induction activity was not observed | enlarged | increased |  |  |  |  |  |  |  |  |  |  |  |  |  |  |  |  | 
O=C(O)COc1ccc(Cl)cc1 [4-chlorophenoxyacetic acid] | callus induction activity was observed |  |  | not high | reduced |  |  |  |  |  |  |  |  |  |  |  |  |  |  | 
O=C(COc1ccc(Cl)cc1)N1CCN(Cc2ccc3c(c2)OCO3)CC1 [fipexide, 1-[(p-chlorophenoxy)acetyl]-4-piperonylpiperazine] | callus induction activity was observed |  |  |  |  | callus formation was mainly observed in the root | in the shoot apex | suppressed | redifferentiation was observed | higher than that attained at the optimized auxin/cytokinine concentration | Callus formation was observed | callus induction was observed | callus induction was observed | callus induction was observed | callus induction was observed | callus induction was observed | redifferentiation was observed | callus induction was observed in the stalks and the roots | GUS activity was observed in all samples | many calluses were formed
